By IC50 is commonly meant the concentration at which inhibition is half-maximal. The low end stands for greater potency, the high end for weaker potency. The EC50 is the midpoint of the concentration-response curve. Low readings indicate greater potency, high ones weaker potency.

Results on 20 molecules are retold here after patent US8969375B2, “CDK9 kinase inhibitors” (AbbVie Inc., priority 2013, dated 2015).

One assay addresses T1, CDK9/Cyclin T1 (Homo sapiens, UniProt P50750).
T1 construct: purchased Carna Biosciences 04-110
Briefly: CDK9 enzyme activity, LANCE ULight TR-FRET kinase assay. It counts as biochemical. The following applies: 1000 μM ATP, 4 nM CDK9/Cyclin T1, 30 minutes. How it is done:
CDK9 enzyme activities were measured using LANCE ULight TR-FRET kinase assay reagents (PerkinElmer, Waltham, Mass.). Compounds were directly added in 100% DMSO to white low volume assay plates (Perkin Elmer Proxiplate 6008289) using a Labcyte Echo acoustic dispenser. Assay reagents in serine/threonine kinase assay buffer containing 20 mM HEPES, 10 mM MgCl2, 100 mM Na3VO4, and 0.0075% Triton X-100. were added for final reaction mixture concentrations of 1000 μM ATP, 100 nM U-light MBP peptide (Perkin Elmer TRF0109M) and reaction initiated with 4 nM CDK9/Cyclin T1 (Carna Biosciences 04-110). The kinase reaction was carried out for 30 minutes before addition of stopping buffer to a final of 20 mM EDTA and 0.5 nM of LANCE Ultra Europium anti-phospho-MBP antibody (PerkinElmer TRF0201M) in LANCE detection buffer (PerkinElmer CR97-100). The reaction was equilibrated for 1 hour and the signal read in the Perkin Elmer Envision in TR-FRET mode (excitation at 320 nm and emission at 615/665 nm).
On the technique in general: TR-FRET usually uses a lanthanide donor and a delayed reading to cut background.

In a further assay the test system is H929 cells. As to the kind of experiment: Cell viability assay (Cell TiterGlo), H929 cells. It counts as cell-based, human. Conditions: Homo sapiens, NCI-H929, 24 hours. How it is done: Cell viability assays were performed using A431 or H929 cells. A431 cells were seeded in 96-well plates at 10,000 cells/well, and after overnight incubation, treated with compounds at 2-times the final concentration to result in a dose response of 3-fold dilutions from 10 μM to 0.0005 μM (50 μL/well, 0.1% final DMSO concentration). H929 cells were seeded in 96-well plates at 10,000 cells/well and treated immediately with compounds as described above. After 24 hours at 37° C., cell viability was measured using Cell TiterGlo reagent (Promega) with a luminescence reader. Alternately, cell viability assays were performed in 384-well format. A431 cells were seeded in 384-well plates at 2500 cells/well and, after overnight incubation, treated with compounds in a dose response of 3-fold dilutions from 10 μM to 0.0005 μM ([…], 0.1% final DMSO concentration). For the H929 viability assay, […] of the compounds was dispensed into 384-well plates in a dose response as described above and cells were immediately seeded in 384-well plates at 2500 cells/well. After 24 hours at […], cell viability was measured using Cell TiterGlo reagent (Promega) with a luminescence reader.
(In general: ATP-based viability assays read luminescence as a measure of living cells.)

T1 sequence (P50750 whole entry): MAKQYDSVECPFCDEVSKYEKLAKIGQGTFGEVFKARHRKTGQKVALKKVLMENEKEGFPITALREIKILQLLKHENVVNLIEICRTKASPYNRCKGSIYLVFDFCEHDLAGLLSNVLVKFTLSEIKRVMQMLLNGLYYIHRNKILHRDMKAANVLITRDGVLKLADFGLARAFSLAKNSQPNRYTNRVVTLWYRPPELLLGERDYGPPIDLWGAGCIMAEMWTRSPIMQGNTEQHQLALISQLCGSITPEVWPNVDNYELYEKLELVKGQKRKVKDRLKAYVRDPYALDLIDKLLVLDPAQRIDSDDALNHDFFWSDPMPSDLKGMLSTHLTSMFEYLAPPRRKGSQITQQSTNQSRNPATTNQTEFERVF
T1 sequence (O60563 whole entry partner): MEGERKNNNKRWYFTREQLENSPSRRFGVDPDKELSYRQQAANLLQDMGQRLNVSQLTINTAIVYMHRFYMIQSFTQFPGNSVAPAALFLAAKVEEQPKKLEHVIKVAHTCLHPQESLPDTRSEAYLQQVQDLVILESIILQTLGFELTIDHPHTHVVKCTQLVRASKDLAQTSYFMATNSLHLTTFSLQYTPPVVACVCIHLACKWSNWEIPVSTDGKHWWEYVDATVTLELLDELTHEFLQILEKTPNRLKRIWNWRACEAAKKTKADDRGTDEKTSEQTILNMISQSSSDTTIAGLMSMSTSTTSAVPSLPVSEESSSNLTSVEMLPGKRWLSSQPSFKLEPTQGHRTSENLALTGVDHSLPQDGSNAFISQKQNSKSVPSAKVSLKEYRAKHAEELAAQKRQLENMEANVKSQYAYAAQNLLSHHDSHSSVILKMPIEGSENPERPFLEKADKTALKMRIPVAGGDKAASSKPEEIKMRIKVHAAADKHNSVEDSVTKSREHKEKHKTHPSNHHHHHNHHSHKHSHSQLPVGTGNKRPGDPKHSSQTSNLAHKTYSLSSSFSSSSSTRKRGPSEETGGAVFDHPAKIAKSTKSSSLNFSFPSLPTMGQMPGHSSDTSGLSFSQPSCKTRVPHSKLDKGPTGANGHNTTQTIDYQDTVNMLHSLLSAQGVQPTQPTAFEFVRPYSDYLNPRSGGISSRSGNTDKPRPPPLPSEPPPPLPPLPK

As for `CS(=O)(=O)N1CCC(c2cc3c(-c4ccc5ncn(CC6CCOCC6)c5c4)ccnc3[nH]2)CC1` [Example 6, 6-{2-[1-(methylsulfonyl)piperidin-4-yl]-1H-pyrrolo[2,3-b]pyridin-4-yl}-1-(tetrahydro-2H-pyran-4-ylmethyl)-1H-benzimidazole], half-maximal inhibition on CDK9/Cyclin T1 (IC50) required 38 nM. In the assay on H929 cells, this molecule returned an EC50 of 130 nM.
The corresponding values for `c1cc(-c2ccc3ncn(CC4CCOCC4)c3n2)c2cc(C3CCNCC3)[nH]c2n1` [Example 7, 5-[2-(piperidin-4-yl)-1H-pyrrolo[2,3-b]pyridin-4-yl]-3-(tetrahydro-2H-pyran-4-ylmethyl)-3H-imidazo[4,5-b]pyridine] are 69 nM and 500 nM.
The corresponding values for `CS(=O)(=O)N1CCC(c2cc3c(-c4ccc5c(C#N)cn(Cc6cccc(F)c6)c5c4)ccnc3[nH]2)CC1` [Example 11, 1-(3-fluorobenzyl)-6-{2-[1-(methylsulfonyl)piperidin-4-yl]-1H-pyrrolo[2,3-b]pyridin-4-yl}-1H-indole-3-carbonitrile] are 110 nM and 178 nM.
The like results for `CNC(=O)N1CCC(c2cc3c(-c4ccc5ncn(Cc6cncc(F)c6)c5c4)ccnc3[nH]2)CC1` [Example 16, 4-(4-{1-[(5-fluoropyridin-3-yl)methyl]-1H-benzimidazol-6-yl}-1H-pyrrolo[2,3-b]pyridin-2-yl)-N-methylpiperidine-1-carboxamide] were, in that order, 94 nM and 180 nM.
For the molecule `OCC(O)CN1CCC(c2cc3c(-c4ccc5ncn(Cc6cncc(F)c6)c5c4)ccnc3[nH]2)CC1` (stereo not drawn) [Example 17, 3-[4-(4-{1-[(5-fluoropyridin-3-yl)methyl]-1H-benzimidazol-6-yl}-1H-pyrrolo[2,3-b]pyridin-2-yl)piperidin-1-yl]propane-1,2-diol], at CDK9/Cyclin T1, the IC50 was 66 nM. This molecule also came in with an EC50 with H929 cells of 120 nM.
The like results for `Fc1cc2ncn(CC3CCOCC3)c2cc1-c1ccnc2[nH]c(C3CCNCC3)cc12` [Example 18, 5-fluoro-6-[2-(piperidin-4-yl)-1H-pyrrolo[2,3-b]pyridin-4-yl]-1-(tetrahydro-2H-pyran-4-ylmethyl)-1H-benzimidazole] were, in that order, 120 nM and 858 nM.
On to `OCC(O)CN1CCC(c2cc3c(-c4cc5c(cc4F)ncn5CC4CCOCC4)ccnc3[nH]2)CC1` (stereo not drawn) [Example 19, 3-(4-{4-[5-fluoro-1-(tetrahydro-2H-pyran-4-ylmethyl)-1H-benzimidazol-6-yl}-1H-pyrrolo[2,3-b]pyridin-2-yl]piperidin-1-yl)propane-1,2-diol], for which the IC50 against CDK9/Cyclin T1 was found to be 97 nM. The molecule further returned an EC50 with H929 cells of 1110 nM.
The corresponding values for `CNC(=O)N1CCC(c2cc3c(-c4cc5c(cc4F)ncn5CC4CCOCC4)ccnc3[nH]2)CC1` [Example 20, 4-{4-[5-fluoro-1-(tetrahydro-2H-pyran-4-ylmethyl)-1H-benzimidazol-6-yl]-1H-pyrrolo[2,3-b]pyridin-2-yl}-N-methylpiperidine-1-carboxamide] are 160 nM and 1970 nM.
The corresponding values for `O=C(CO)N1CCC(c2cc3c(-c4cc5c(cc4F)ncn5CC4CCOCC4)ccnc3[nH]2)CC1` [Example 21, 1-(4-{4-[5-fluoro-1-(tetrahydro-2H-pyran-4-ylmethyl)-1H-benzimidazol-6-yl}-1H-pyrrolo[2,3-b]pyridin-2-yl]piperidin-1-yl)-2-hydroxyethanone] are 100 nM and 1850 nM.
The corresponding values for `N#Cc1cn(Cc2ccccc2)c2cc(-c3ncnc4[nH]c(C5=CCNCC5)cc34)ccc12` [Example 22, 1-benzyl-6-[6-(1,2,3,6-tetrahydropyridin-4-yl)-7H-pyrrolo[2,3-d]pyrimidin-4-yl]-1H-indole-3-carbonitrile] are 16 nM and 100 nM.
For `CS(=O)(=O)N1CCC(c2cc3c(-c4cc5c(cc4F)ncn5CC4CCOCC4)ccnc3[nH]2)CC1` [Example 23, 5-fluoro-6-{2-[1-(methylsulfonyl)piperidin-4-yl]-1H-pyrrolo[2,3-b]pyridin-4-yl}-1-(tetrahydro-2H-pyran-4-ylmethyl)-1H-benzimidazole], at CDK9/Cyclin T1, the IC50 was 55 nM. In the assay with H929 cells, the EC50 stood at 550 nM.
At CDK9/Cyclin T1, `Clc1cc2ncn(CC3CCOCC3)c2cc1-c1ccnc2[nH]c(C3CCNCC3)cc12` [Example 27, 5-chloro-6-[2-(piperidin-4-yl)-1H-pyrrolo[2,3-b]pyridin-4-yl]-1-(tetrahydro-2H-pyran-4-ylmethyl)-1H-benzimidazole] had an IC50 of 53 nM. The same molecule came in with a half-maximal effective concentration (EC50) with H929 cells of 7000 nM.
The corresponding values for `N#Cc1cn(CC2CCOCC2)c2cc(-c3ccnc4[nH]c(C5CCNCC5)cc34)cnc12` [Example 28, 6-[2-(piperidin-4-yl)-1H-pyrrolo[2,3-b]pyridin-4-yl]-1-(tetrahydro-2H-pyran-4-ylmethyl)-1H-pyrrolo[3,2-b]pyridine-3-carbonitrile] are 180 nM and above 10000 nM.
The like results for `c1cc(-c2cnc3ccn(CC4CCOCC4)c3c2)c2cc(C3CCNCC3)[nH]c2n1` [Example 30, 6-{2-(piperidin-4-yl)-1H-pyrrolo[2,3-b]pyridin-4-yl}-1-(tetrahydro-2H-pyran-4-ylmethyl)-1H-pyrrolo[3,2-b]pyridine] were, in that order, 85 nM and 6300 nM.
Consider `N#Cc1cn(Cc2ccccc2)c2cc(-c3ncnc4[nH]c(C5=CCN(CC(O)CO)CC5)cc34)ccc12` (stereo not drawn) [Example 31, 1-benzyl-6-{6-[1-(2,3-dihydroxypropyl)-1,2,3,6-tetrahydropyridin-4-yl]-7H-pyrrolo[2,3-d]pyrimidin-4-yl}-1H-indole-3-carbonitrile], for which, at CDK9/Cyclin T1, the IC50 amounted to 30 nM.
`Fc1cccc(CCn2nnc3ccc(-c4ccnc5[nH]c(C6CCNCC6)cc45)cc32)c1` [Example 32, 1-[2-(3-fluorophenyl)ethyl]-6-{2-(piperidin-4-yl)-1H-pyrrolo[2,3-b]pyridin-4-yl}-1H-benzotriazole]: inhibition on CDK9/Cyclin T1 was half-maximal at 51 nM (IC50). This molecule had an EC50 with H929 cells of 890 nM.
The like results for `Fc1cccc(CCn2nnc3ccc(-c4ccnc5[nH]c(C6CCNCC6)c(Cl)c45)cc32)c1` [Example 33, 6-[3-chloro-2-(piperidin-4-yl)-1H-pyrrolo[2,3-b]pyridin-4-yl]-1-[2-(3-fluorophenyl)ethyl]-1H-benzotriazole] were, in that order, 18 nM and 1100 nM.
The molecule `CS(=O)(=O)N1CCC(c2cc3c(-c4cnc5ccn(Cc6cccc(F)c6)c5c4)ccnc3[nH]2)CC1` [Example 34, 1-(3-fluorobenzyl)-6-{2-[1-(methylsulfonyl)piperidin-4-yl]-1H-pyrrolo[2,3-b]pyridin-4-yl}-1H-pyrrolo[3,2-b]pyridine] registered an IC50 on CDK9/Cyclin T1 of 17 nM. This molecule returned an EC50 in the assay with H929 cells of 130 nM.
The molecule `N#Cc1cn(Cc2cccc(F)c2)c2nc(-c3ccnc4[nH]c(C5CCNCC5)cc34)ccc12` [Example 35, 1′-(3-fluorobenzyl)-2-(piperidin-4-yl)-1H,1′H-4,6′-bipyrrolo[2,3-b]pyridine-3′-carbonitrile] came in with an IC50 against CDK9/Cyclin T1 of 13 nM. In addition, the concentration for a half-maximal effect (EC50) in the assay with H929 cells was 200 nM.
In turn, `C1=C(c2cc3c(-c4ccc5nnn(CC6CCOCC6)c5c4)ccnc3[nH]2)CCNC1` [Example 36, 1-(tetrahydro-2H-pyran-4-ylmethyl)-6-[2-(1,2,3,6-tetrahydropyridin-4-yl)-1H-pyrrolo[2,3-b]pyridin-4-yl]-1H-benzotriazole] showed an IC50 against CDK9/Cyclin T1 of 59 nM. In addition, a half-maximal response in the assay with H929 cells (EC50) required 450 nM.
